The values that follow come from patent US20230256050A1, “COMPOSITIONS, METHODS AND USES COMPRISING TENEURIN C-TERMINAL ASSOCIATED PEPTIDE -1 (TCAP-1) FOR ENHANCING MUSCLE PERFORMANCE” (priority 2016, published 2023).

Experiment [1] concerns C2C12 myotubes. The experiment in a line: Calcium imaging in live C2C12 cells (fluo-4). Type of experiment: cell-based, mouse. The settings on record: caffeine 4 mM, TCAP-1 100 nM pre-treatment for 1 hour. Here is the method:
For live-cell fluorescence experiments, immortalized murine C2C12 skeletal muscle cells were grown and fully differentiated on Poly-D-lysine coated 25 mm round No. 1 glass coverslips (Warner Instruments, Hamden, CT, USA). Cells were grown in Dulbecco’s Modified Eagle Medium (DMEM) supplemented with 20% fetal bovine serum (FBS), 100 U/ml penicillin and 100 µg/ml streptomycin (Invitrogen, Burlington, ON, Canada), and stimulated differentiation with DMEM supplemented with 10% horse serum (HS), 100 U/ml penicillin and 100 µg/ml streptomycin (Invitrogen, Burlington, ON, Canada. Changes in intracellular calcium were assessed using the membrane-permeable calcium sensitive fluorescent indicator fluo-4, AM (Invitrogen, Burlington, ON, Canada). Cells were loaded with fluo-4 by incubating a single coverslip in DMEM containing 10 µM fluo-4 (from a 1 mM stock solution in DMSO) for 30 min (37° C.) followed by a 15 min wash in Locke’s Buffer containing (in mM): 154 mM NaCl, 4 mM NaHCOs, 5 mM KCI, 2.3 mM CaCl2, 1 mM MgCl2, 5 mM glucose and 10 mM Hepes (pH 7.4); osmolarity 305-310 mOsmol at 22° C. During loading, the acetate groups on fluo-4 are removed by intracellular esterases reducing dye leakage. In experiments assessing changes in intracellular calcium, coverslips were placed in a flow-through bath chamber (RC-40HP, Warner Instruments, Hamden, CT, USA) of an inverted microscope (Axio Observer Z1, Zeiss, Toronto, ON, Canada) equipped with a 40× oil immersion objective. Cells were continuously bulk perfused with Locke’s buffer via a gravity drip perfusion system at a rate of 2-3 ml min-1 and experiments were conducted at a room temperature (RT) of 22° C. Changes in fluo-4 fluorescence was imaged using a green fluorescent protein (GFP) filter set (Semrock, Rochester, NY, USA) and a X-Cite 120 fluorescence illumination system (Excelitas Technologies, Mississauga, ON, Canada), controlled by Volocity 4.0 imaging software (Quorum Technologies Inc., Guelph, ON, Canada). Fluorescence emissions were detected with an Orca-ER Hamamatsu B/W CCD digital camera (Hamamatsu, Middlesex, NJ, USA). Fluo-4 was excited with a wavelength of 480 nm for 100 ms every 5 sec and fluorescence emission was measured at wavelength of 516 nm. Caffeine (4 mM; Sigma Aldrich, Oakville, ON) was applied to C2C12 myotubes to stimulate calcium release from the sarcoplasmic reticulum. Cells were either pre-treated with TCAP-1 (100 nM) for 1 hour before stimulation with caffeine. Using velocity 4.0 imaging software, multiple regions of interests (ROIs) were taken from each coverslip to be analysed.

Experiment [2] concerns C2C12 myotubes. Description: Mitochondrial membrane potential in C2C12 cells with Rhodamine-123. Type of experiment: cell-based, mouse. The settings on record: caffeine 4 mM; TCAP-1 100 nM pre-treatment for 1 hour, compared with caffeine alone. Here is the method:
C2C12 myotubes were cultured as previously described above. Changes in mitochondrial membrane potential were assessed using fluorescent indicator Rhodamine123 (R123). Cells were loaded with R123 by incubating a single coverslip in DMEM containing 5 µM R123 (from a 1 mM stock solution in DMSO) for 30 min (37° C.) followed by a 15 min wash in Locke’s Buffer containing (in mM): 154 mM NaCl, 4 mM NaHCOs, 5 mM KCI, 2.3 mM CaCl2, 1 mM MgCl2, 5 mM glucose and 10 mM Hepes (pH 7.4); osmolarity 305-310 mOsmol at 22° C. […] Changes in R123 fluorescence was imaged using a green fluorescent protein (GFP) filter set (Semrock, Rochester, NY, USA) and a X-Cite 120 fluorescence illumination system (Excelitas Technologies, Mississauga, ON, Canada), controlled by Volocity 4.0 imaging software (Quorum Technologies Inc., Guelph, ON, Canada). Fluorescence emissions were detected with an Orca-ER Hamamatsu B/W CCD digital camera (Hamamatsu, Middlesex, NJ, USA). R123 was excited with a wavelength of 480 nm for 100 ms every 5 sec and fluorescence emission was measured at wavelength of 516 nm. […] Using velocity 4.0 imaging software, multiple regions of interests (ROIs) were taken from each coverslip to be analysed.

Turning to `Cn1c(=O)c2c(ncn2C)n(C)c1=O` [caffeine, Caffeine, reference compound], the “peak in cytosolic calcium on caffeine application (fluo-4 fluorescence)” value in experiment [1] (compared with caffeine alone) was “strong peak in cytosolic calcium”. Moreover, the “decline of cytosolic calcium after the caffeine peak” value in experiment [1] (over 5 minutes) is given as “gradual decrease over 5 minutes”. Also, the “mitochondrial membrane potential (Rhodamine123 fluorescence)” value in experiment [2] is “mitochondrial membrane depolarization”.
